Test results from ChEMBL document CHEMBL1914403 (J Med Chem, 2011).

Columns and labels:
[1] = Drug uptake in brain; assay type: ADME, tissue-based
[2] = AUC in plasma of rat at 10 mg/kg, po; assay type: ADME, organism-based; set-up: dose 10 mg/kg, route oral
Rattus norvegicus [3] = assay: Volume of distribution at steady state in rat at 2 mg/kg, po; assay type: ADME, organism-based; set-up: dose 2 mg/kg, route oral; conditions: in vivo
[4] = AUC in brain of rat at 10 mg/kg, po; assay type: ADME, organism-based; set-up: dose 10 mg/kg, route oral
[5] = Oral bioavailability in rat at 2 mg/kg; assay type: ADME, organism-based; conditions: in vivo
[6] = Oral bioavailability in rat at […]; assay type: ADME, organism-based; conditions: in vivo
Rattus norvegicus [7] = assay: Volume of distribution at steady state in rat at […], po; assay type: ADME, organism-based; set-up: dose 2.5 mg/kg, route oral; conditions: in vivo
MDCK [8] = assay: Apparent permeability across basolateral to apical side of dog MDCK cells expressing human MDR1; assay type: ADME, cell-based, Canis lupus familiaris
[9] = Oral bioavailability in dog at […]; assay type: ADME, organism-based, Canis lupus familiaris; conditions: in vivo
MDCK [10] = assay: Apparent permeability across apical to basolateral side of dog MDCK cells expressing human MDR1; assay type: ADME, cell-based, Canis lupus familiaris
Canis familiaris [11] = assay: Volume of distribution at steady state in dog at […], po; assay type: ADME, organism-based, Canis lupus familiaris; set-up: dose 2.5 mg/kg, route oral; conditions: in vivo
Canis familiaris [12] = assay: Volume of distribution at steady state in dog at 2 mg/kg, po; assay type: ADME, organism-based, Canis lupus familiaris; set-up: dose 2 mg/kg, route oral; conditions: in vivo
[13] = Oral bioavailability in dog at 2 mg/kg; assay type: ADME, organism-based, Canis lupus familiaris; conditions: in vivo
Rattus norvegicus [14] = assay: Volume of distribution at steady state in rat at 0.1 mg/kg, po; assay type: ADME, organism-based; set-up: dose 0.1 mg/kg, route oral; conditions: in vivo
Canis familiaris [15] = assay: Volume of distribution at steady state in dog at 0.5 mg/kg, po; assay type: ADME, organism-based, Canis lupus familiaris; set-up: dose 0.5 mg/kg, route oral; conditions: in vivo
[16] = Oral bioavailability in dog at 0.5 mg/kg; assay type: ADME, organism-based, Canis lupus familiaris; conditions: in vivo
[17] = Oral bioavailability in rat at 0.1 mg/kg; assay type: ADME, organism-based; conditions: in vivo

Row | SMILES | Drug uptake [1] | other results
1 | COc1ccc2nc(C)c3c(C)nc(-c4ccccc4C)n3c2n1 | > 90% | 
2 | COc1ccc2nc(C)c3c(C)nc(-c4ccccc4C(F)(F)F)n3c2n1 | > 90% | 
3 | COc1ccc2nc(C)c3c(C)nc(-c4ccccc4Cl)n3c2n1 | > 90% | 
4 | COc1ccc2nc(C)c3c(C)nc(-c4cc(Cl)ccc4Cl)n3c2n1 | > 90% | 
5 | COc1ccc2nc(C)c3c(C)nc(-c4ccc(F)cc4Cl)n3c2n1 | > 90% | 
6 | COc1ccc2nc(C)c3c(C)nc(-c4ccccc4OC)n3c2n1 | > 90% | 
7 | COc1ccc2nc(C)c3c(C)nc(-c4ccccc4OC(F)(F)F)n3c2n1 | > 90% | 
8 | COc1ccc2nc(C)c3c(C)nc(-c4ccccc4C(N)=O)n3c2n1 | > 90% | 
9 | COc1ccc2nc(C)c3c(C(F)(F)F)nc(-c4ccccc4C)n3c2n1 | > 90% | 
10 | COc1ccc2nc(C)c3c(C(F)(F)F)nc(-c4ccccc4Cl)n3c2n1 | > 90% | 
11 | COc1ccc2nc(C)c3c(C(F)(F)F)nc(-c4cc(Cl)ccc4Cl)n3c2n1 | > 90% | 
12 | COc1ccc2nc(C)c3c(C(F)(F)F)nc(-c4ccc(F)cc4Cl)n3c2n1 | > 90% | 
13 | COc1ccc2nc(C)c3c(C(F)(F)F)nc(-c4cc(F)ccc4Cl)n3c2n1 | > 90% | 
14 | COc1ccc(Cl)c(-c2nc(C(F)(F)F)c3c(C)nc4ccc(OC)nc4n23)c1 | > 90% | 
15 | COc1ccc2nc(C(F)(F)F)c3c(C)nc(-c4ccccc4Cl)n3c2n1 | > 90% | 
16 | COc1ccc2nc(C(F)F)c3c(C)nc(-c4ccccc4Cl)n3c2n1 | > 90% | 
17 | COc1ccc2nc(C#N)c3c(C)nc(-c4ccccc4Cl)n3c2n1 | > 90% | 
18 | COc1ccc2nc(C)c3c(C)nc(-c4sccc4C)n3c2n1 | > 90% | 
19 | COc1ccc2nc(C)c3c(C)nc(-c4cccn4C)n3c2n1 | > 90% | 
20 | COc1ccc2nc(C)c3c(C)nc(-c4cn[nH]c4)n3c2n1 | > 90% | 
21 | COc1ccc2nc(C)c3c(C)nc(-c4c(C)n[nH]c4C)n3c2n1 | > 90% | 
22 | COc1ccc2nc(C)c3c(C)nc(-c4c(C)nn(C)c4C)n3c2n1 | > 90% | AUC [2]: 4130 ng·h/mL; Vdss (Rattus norvegicus [3]): 0.7 L/kg; AUC [4]: 2940 ng·h/mL; bioavailability [5]: 67%
23 | COc1ccc2nc(C)c3c(C)nc(-c4c(C)noc4C)n3c2n1 | > 90% | 
24 | COc1ccc2nc(C)c3c(C)nc(-c4sc(C)nc4C)n3c2n1 | > 90% | 
25 | COc1ccc2nc(C)c3c(C)nc(-c4cncnc4)n3c2n1 | > 90% | 
26 | COc1ccc2nc(C)c3c(C)nc(-c4cccnc4)n3c2n1 | > 90% | 

Row | SMILES | Drug uptake [1] | other results
27 | COc1ccc2nc(C)c3c(C)nc(-c4cccnc4C)n3c2n1 | > 90% | 
28 | COc1ccc2nc(C)c3c(C)nc(-c4cnccc4C)n3c2n1 | > 90% | bioavailability [6]: 25%; AUC [2]: 747 ng·h/mL; Vdss (Rattus norvegicus [7]): 1 L/kg; AUC [4]: 866 ng·h/mL
29 | COc1ccc2nc(C)c3c(C)nc(-c4ccc(C)nc4)n3c2n1 | > 90% | 
30 | COc1ccc2nc(C)c3c(C)nc(-c4cnccc4Cl)n3c2n1 | > 90% | 
31 | COc1ccc2nc(C)c3c(C)nc(-c4ccncc4C)n3c2n1 | > 90% | 
32 | COc1ccc2nc(C)c3c(C)nc(-c4ccncc4Cl)n3c2n1 | > 90% | 
33 | COc1ccc2nc(C)c3c(C)nc(-c4cccnc4OC)n3c2n1 | > 90% | 
34 | COc1ccc2nc(C)c3c(C)nc(-c4cnccc4OC)n3c2n1 | > 90% | 
35 | Cc1ccncc1-c1nc(C)c2c(C)nc3ccccc3n12 | > 90% | 
36 | Cc1ccncc1-c1nc(C)c2c(C)nc3ccc(F)cc3n12 | > 90% | 
37 | Cc1cnccc1-c1nc(C)c2c(C)nc3ccc(F)cc3n12 | > 90% | 
38 | Cc1ccccc1-c1nc(C)c2c(C)nc3ccc(F)cc3n12 | > 90% | 
39 | Cc1ccncc1-c1nc(C)c2c(C)nc3ccc(Cl)cc3n12 | > 90% | 
40 | Cc1cnccc1-c1nc(C)c2c(C)nc3ccc(Cl)cc3n12 | > 90% | 
41 | COc1ccc2nc(C)c3c(C)nc(-c4cnccc4C)n3c2c1 | > 90% | 
42 | Cc1ccncc1-c1nc(C)c2c(C)nc3ccc(OC(F)(F)F)cc3n12 | > 90% | 
43 | Cc1cnccc1-c1nc(C)c2c(C)nc3ccc(OC(F)(F)F)cc3n12 | > 90% | 
44 | Cc1ccncc1-c1nc(C)c2c(C)nc3ccc(C(F)(F)F)cc3n12 | > 90% | 
45 | Cc1cnccc1-c1nc(C)c2c(C)nc3ccc(C(F)(F)F)cc3n12 | > 90% | 
46 | Cc1ncccc1-c1nc(C)c2c(C)nc3ccc(C(F)(F)F)cc3n12 | > 90% | 
47 | Cc1ccncc1-c1nc(C)c2c(C)nc3c(F)cc(F)cc3n12 | > 90% | 
48 | Cc1cnccc1-c1nc(C)c2c(C)nc3c(F)cc(F)cc3n12 | > 90% | 
49 | COc1cc(F)cc2c1nc(C)c1c(C)nc(-c3cnccc3C)n12 | > 90% | 
50 | COc1cc(F)cc2c1nc(C)c1c(C)nc(-c3ccncc3C)n12 | > 90% | bioavailability [6]: 27%; Papp (MDCK [8]): permeable; AUC [2]: 3640 ng·h/mL; bioavailability [9]: 73%; Papp (MDCK [10]): permeable; Vdss (Rattus norvegicus [7]): 0.9 L/kg; AUC [4]: 2370 ng·h/mL; Vdss (Canis familiaris [11]): 6 L/kg
51 | COc1cc(F)cc2c1nc(C)c1c(C)nc(-c3cccnc3C)n12 | > 90% | 
52 | COc1cc(F)cc2c1nc(C)c1c(C)nc(-c3sc(C)nc3C)n12 | > 90% | 

Row | SMILES | Drug uptake [1] | other results
53 | COc1cc(F)cc2c1nc(C)c1c(C)nc(-c3c(C)nn(C)c3C)n12 | > 90% | 
54 | COc1cc(F)cc2c1nc(C)c1c(C)nc(-c3ccccc3C)n12 | > 90% | 
55 | Cc1ccccc1-c1nc(C)c2c(C)nc3c(OC(F)F)cc(F)cc3n12 | > 90% | 
56 | CCOc1cc(F)cc2c1nc(C)c1c(C)nc(-c3ccccc3C)n12 | > 90% | 
57 | Cc1ccccc1-c1nc(C)c2c(C)nc3c(OCC(F)(F)F)cc(F)cc3n12 | > 90% | 
58 | Cc1ccccc1-c1nc(C)c2c(C)nc3c(OCC4CC4)cc(F)cc3n12 | > 90% | 
59 | Cc1ccccc1-c1nc(C)c2c(C)nc3c(O)cc(F)cc3n12 | > 90% | 
60 | COc1cc(OC)c2nc(C)c3c(C)nc(-c4cnccc4C)n3c2c1 | > 90% | bioavailability [6]: 25%; AUC [2]: 8850 ng·h/mL; Vdss (Rattus norvegicus [7]): 1.3 L/kg; AUC [4]: 3280 ng·h/mL; Vdss (Canis familiaris [12]): 1.6 L/kg; bioavailability [13]: 100%
61 | COc1cc(OC)c2nc(C)c3c(C)nc(-c4ccncc4C)n3c2c1 | > 90% | 
62 | COc1cc(OC)c2nc(C)c3c(C)nc(-c4cccnc4C)n3c2c1 | > 90% | 
63 | COc1cc(N2CCOCC2)cc2c1nc(C)c1c(C)nc(-c3ccncc3C)n12 | > 90% | 
64 | COc1cc(N2CCOCC2)cc2c1nc(C)c1c(C)nc(-c3cccnc3C)n12 | > 90% | 
65 | COc1cc(OCc2ccccc2)cc2c1nc(C)c1c(C)nc(-c3cccnc3C)n12 | > 90% | 
66 | COc1cc(OC(F)F)cc2c1nc(C)c1c(C)nc(-c3cccnc3C)n12 | > 90% | Vdss (Rattus norvegicus [14]): 0.6 L/kg; Vdss (Canis familiaris [15]): 1.1 L/kg; AUC [2]: 12700 ng·h/mL; bioavailability [16]: 84%; AUC [4]: 4400 ng·h/mL; bioavailability [17]: 83%
67 | COc1cc(C(F)(F)F)cc2c1nc(C)c1c(C)nc(-c3ccncc3C)n12 | > 90% | 
68 | COc1cc(Cl)c2nc(C)c3c(C)nc(-c4ccncc4C)n3c2c1 | > 90% | 
69 | Cc1cnccc1-c1nc(C)c2c(C)nc3c(Cl)cc(C(F)(F)F)cc3n12 | > 90% | 
70 | COc1cc(F)c2nc(C)c3c(C)nc(-c4cnccc4C)n3c2c1 | > 90% | 
71 | COc1cc(F)c2nc(C)c3c(C)nc(-c4ccncc4C)n3c2c1 | > 90% | 
72 | COc1cc(F)c2nc(C)c3c(C)nc(-c4cccnc4C)n3c2c1 | > 90% | 
73 | Cc1cnccc1-c1nc(C)c2c(C)nc3c(F)cc(OC(F)F)cc3n12 | > 90% | 
74 | Cc1cnccc1-c1nc(C)c2c(C)nc3c(F)cc(OCC(F)(F)F)cc3n12 | > 90% | 
75 | Cc1cnccc1-c1nc(C)c2c(C)nc3c(F)cc(OCC4CC4)cc3n12 | > 90% | 
76 | COc1cc(F)c2nc(C)c3c(C)nc(-c4c(C)nn(C)c4C)n3c2c1 | > 90% | 
